Data set [1] can be described thus: Photostability, thin-film irradiation in Atlas Suntest xenon lamp. Format: physicochemical. To be noted: thin film on glass, Suntest 750 W/m2; time for first 50% loss. The protocol:
Photostability tests were carried out by irradiation of thin-film deposits of compounds and formulations on glass surfaces, using a filtered xenon lamp system (Atlas Suntest) which reproduces the spectrum and intensity of sunlight. The spectral output power of the Suntest was set to 750 W/m2, which is the typical daily maximum irradiance level at noon (UK, midsummer).
Test compounds were typically dissolved in HPLC grade methanol to give 1 g/L stock solutions. Alternatively, formulated compounds were suspended in water at the same concentration. 2 μL droplets of test solutions were spotted onto microscope cover slips in a 3D printed holder, allowed to dry then irradiated in the Suntest for varying times. Cover slips were then removed from the Suntest and placed in 4 dram vials; 1 mL of wash solvent (typically 30:70 acetonitrile: 0.2% aqueous formic acid) was added, and the vials shaken to extract compounds into solution. Solutions were analysed by reverse phase HPLC, typically using a Waters UPLC system with Photodiode Array (PDA) and Waters columns (BEH C18, 100×2.1 mm×1.7 μm) using mixed aqueous:acetonitrile mobile phase, acidifed with 0.2% formic acid. Peak detection was at the optimum wavelength for each candidate compound and PDA peak areas were used for quantification. Plots of % loss versus time were used to estimate T50 values, being the time taken for first 50% loss of test compound.

The conditions of data set [2]: pH 7.2.
The nature of data set [3]: physchem. To be noted: pH 7.
Data set [4] is described as follows: Solubility in heptane.
Data set [5] can be described thus: Octanol-water partition coefficient (Log P) by HPLC on octanol-coated mini-columns. To be noted: pH 7.
The nature of data set [6]: Solubility in aqueous buffer (10 mM mixed phosphate, pH 7.20).
Data set [7] has as its system Fusarium culmorum. Format: in vivo. To be noted: 200 ppm; wheat spikelet preventative; compared to untreated control.
For data set [8], the system named is Gibberella zeae (Fusarium graminearum). Format: in vivo. To be noted: 200 ppm; wheat spikelet preventative; compared to untreated control.
For data set [9], the system named is Pyrenophora teres. The data set can be described thus: Example B15 Pyrenophora teres/barley/leaf disc preventative (net blotch). To be noted: foliar, barley leaf disc preventative, compared to untreated control. The data set is classed as in vivo.
Data set [10] has as its system Magnaporthe grisea (Pyricularia oryzae). Nature of the data set: whole plant or invertebrate. To be noted: foliar, read-out: control of Magnaporthe grisea. The data set is classed as in vivo.

Structures are written as SMILES. Read-outs that look alike come from different tables or passages of the source.

For the molecule `Cc1sc(Nc2cc(F)nc(F)c2)nc1C(=O)NC1CCC1(C)C` (stereo not shown) [Compound E-0, 2-[(2,6-difluoro-4-pyridyl)amino]-N-(2,2-dimethylcyclobutyl)-5-methyl-thiazole-4-carboxamide, reference compound], the “Photostability T50” value in [1] came out at 3.5 h. This molecule came in with a Solubility in water in data set [2] of 0.70 ppm.

The term chromatographic logP denotes lipophilicity estimated from chromatographic retention. A higher chromatographic logP goes with a more lipophilic compound. In the case of `Cc1sc(N(C=O)c2cc(F)nc(F)c2)nc1C(=O)NC1CCC1(C)C` (stereo not shown) [I.b.595, 2-[(2,6-difluoro-4-pyridyl)-formyl-amino]-N-(2,2-dimethylcyclobutyl)-5-methyl-thiazole-4-carboxamide], the “Photostability T50” value in data set [1] was determined as 2.8 h. The molecule also came in with a chromatographic logP in [3] of 3.61. In data set [2], this molecule had a Solubility in water of 2.5 ppm.

Take `CC(=O)N(c1cc(F)nc(F)c1)c1nc(C(=O)NC2CCC2(C)C)c(C)s1` (stereo not shown) [I.b.596, 2-[acetyl-(2,6-difluoro-4-pyridyl)amino]-N-(2,2-dimethylcyclobutyl)-5-methyl-thiazole-4-carboxamide]: the “Photostability T50” value in data set [1] came out at 5.5 h. Further, in data set [3], the chromatographic logP is 3.8. In [2], this molecule had a Solubility in water of 3.7 ppm.

In data set [4], `COC(=O)N(c1cc(F)nc(F)c1)c1nc(C(=O)NC2CCC2(C)C)c(C)s1` (stereo not shown) [I.b.598, methyl N-(2,6-difluoro-4-pyridyl)-N-[4-[(2,2-dimethylcyclobutyl)carbamoyl]-5-methyl-thiazol-2-yl]carbamate] had a Solubility in heptane of 1155 ppm. In addition, the chromatographic logP in [5] turned out to be 4.21. In addition, the “Photostability T50” value in data set [1] is on record as 6.2 h. The molecule further showed a Solubility in water in data set [6] of 1.4 ppm.

For the molecule `CCOC(=O)N(c1cc(F)nc(F)c1)c1nc(C(=O)NC2CCC2(C)C)c(C)s1` (stereo not shown) [I.b.599, ethyl N-(2,6-difluoro-4-pyridyl)-N-[4-[(2,2-dimethylcyclobutyl)carbamoyl]-5-methyl-thiazol-2-yl]carbamate], the “Photostability T50” value in data set [1] was found to be 11 h. This molecule also returned a chromatographic logP in [3] of 4.58. Besides, the Solubility in water in data set [2] is reported as 1.0 ppm.

Turning to `COCC(=O)N(c1cc(F)nc(F)c1)c1nc(C(=O)NC2CCC2(C)C)c(C)s1` (stereo not shown) [I.b.600, 2-[(2,6-difluoro-4-pyridyl)-(2-methoxyacetyl)amino]-N-(2,2-dimethylcyclobutyl)-5-methyl-thiazole-4-carboxamide], the “control of Fusarium culmorum” value in [7] was “at least 80%”. The “Photostability T50” value in data set [1] worked out at 2.8 h. The molecule further came in with a chromatographic logP in data set [3] of 3.35. In data set [2], this molecule registered a Solubility in water of 18 ppm.

On to `COC(=O)CC(=O)N(c1cc(F)nc(F)c1)c1nc(C(=O)NC2CCC2(C)C)c(C)s1` (stereo not shown) [I.b.607, methyl 3-[(2,6-difluoro-4-pyridyl)-[4-[(2,2-dimethylcyclobutyl)carbamoyl]-5-methyl-thiazol-2-yl]amino]-3-oxo-propanoate], for which the “Photostability T50” value in [1] is 4.4 h. For the same molecule, the chromatographic logP in [3] turned out to be 3.59. In addition, the Solubility in water in data set [2] was determined as 12 ppm. For the same molecule, the “control of Gibberella zeae” value in data set [8] is “at least 80%”.

Regarding `CCOC(=O)C(=O)N(c1cc(F)nc(F)c1)c1nc(C(=O)NC2CCC2(C)C)c(C)s1` (stereo not shown) [I.b.612, ethyl 2-[(2,6-difluoro-4-pyridyl)-[4-[(2,2-dimethylcyclobutyl)carbamoyl]-5-methyl-thiazol-2-yl]amino]-2-oxo-acetate], the “Photostability T50” value in data set [1] came out at 5.5 h. The molecule also had a chromatographic logP in data set [3] of 4.34.

As for `Cc1sc(N(C(=O)c2ccco2)c2cc(F)nc(F)c2)nc1C(=O)NC1CCC1(C)C` (stereo not shown) [I.b.614, 2-[(2,6-difluoro-4-pyridyl)-(furan-2-carbonyl)amino]-N-(2,2-dimethylcyclobutyl)-5-methyl-thiazole-4-carboxamide], the “Photostability T50” value in data set [1] was determined as 14 h. The molecule further registered a chromatographic logP in [3] of 4.61. Also, the Solubility in water in data set [2] turned out to be 0.054 ppm.

In turn, `Cc1sc(N(C(=O)Oc2ccccc2)c2cc(F)nc(F)c2)nc1C(=O)NC1CCC1(C)C` (stereo not shown) [I.b.616, phenyl N-(2,6-difluoro-4-pyridyl)-N-[4-[(2,2-dimethylcyclobutyl)carbamoyl]-5-methyl-thiazol-2-yl]carbamate] returned a Solubility in heptane in data set [4] of 673 ppm. The chromatographic logP in [5] turned out to be 5.34. In addition, the “Photostability T50” value in data set [1] was found to be 18 h. In data set [6], this molecule came in with a Solubility in water of 0.10 ppm.

Regarding `COCC(=O)N(c1cc(F)nc(F)c1)c1nc(C(=O)NC2CCC23CCCC3)c(C)s1` (stereo not shown) [I.c.600, 2-[(2,6-difluoro-4-pyridyl)-(2-methoxyacetyl)amino]-5-methyl-N-spiro[3.4]octan-3-yl-thiazole-4-carboxamide], the pest or weed control at 200 ppm in data set [9] and in data set [10] was no less than 80% in each case.

The values are drawn from patent US12696899B2, “Microbiocidal 2-acylamino-thiazole-4-carboxamide derivatives” (SYNGENTA CROP PROTECTION AG, priority 2018, dated 2026).
